Reference: paper PMC9221546, “New Phenylglycinamide Derivatives with Hybrid Structure as Candidates for New Broad-Spectrum Anticonvulsants” (Cells, 2022)
Where two headings read alike, the source gives them in different places.

Tests used:
[1] = tested on: 6 Hz (32 mA) seizures in mice; test: 6 Hz (32 mA) psychomotor seizure model; format: in vivo; conditions: Mus musculus, ip; for responders at 100 mg/kg: 100 mg/kg i.p., 0.5 h; for ED50: mice, pretreatment time 0.5 h, (95% confidence limits)
Procedure: (§1) Adult male Albino Swiss mice that weighed between 22 and 26 g were used in the in vivo studies. They were housed under standardized housing conditions in colony cages and had free access to food as well as tap water. The animals were left to adapt under laboratory conditions for 7 days. All procedures involving animals and their care were performed in accordance with the current European Community and Polish legislation on animal experimentation.
(§2) In the initial screening studies, four mice per group were randomly assigned to each experimental group (each mouse was used only once). To evaluate the ED50 or TD50 values, 3–4 groups that consisted of eight animals were injected with various doses of tested compounds. The protective indexes (PIs) for the compounds that were investigated and reference ASDs were calculated by dividing the TD50 value, as determined in the chimney test (or rotarod test), by the respective ED50 value, as determined in the MES, scPTZ, or 6 Hz (32 mA or 44 mA) tests (PI = TD50/ED50). The PIs is a measure of the potential therapeutic window of the tested agent.
(§3) All substances were suspended in Tween 80 (1% aqueous solution) and administered i.p. as a single injection at a dose of 10 mL/kg. On each day of experimentation, fresh solutions were prepared. The results are summarized in Table S1 (screening data) and Table 2 (ED50, TD50, and PI values, see Section 3 Results and Discussion).
(§4) The detailed in vivo procedures are described elsewhere: the maximal electroshock seizure test (MES), the subcutaneous pentylenetetrazole seizure test (scPTZ), the 6 Hz psychomotor seizure model (32 mA and 44 mA), and the chimney test.
(§5) The basic animal seizure models such as the MES, 6 Hz (32 mA or 44 mA), and the scPTZ are still a standard in the discovery and development of new ASDs. In vivo screening approaches enable the identification of compounds with unidentified and potentially novel mechanisms of action besides substances with well-established pharmacodynamics. Bearing in mind the aforementioned facts, compounds 45–66 were initially studied in the MES test and in the 6 Hz seizure model (32 mA) after intraperitoneal (i.p.) administration at a screening dose of 100 mg/kg in mice at a time point of 0.5 h (the screening group consisted of four mice, the results obtained are summarized in Table S1). It should be stressed that the MES test is an experimental model of human tonic–clonic epilepsy as well as partial convulsions with or without secondary generalization, the 6 Hz model (32 mA) corresponds to human focal epilepsy, whereas the scPTZ test relates to human generalized absence or myoclonic seizures.
(§6) We also established the median toxic doses (TD50) in the chimney test 0.5 h post i.p. administration of these compounds. Both the aforementioned parameters enabled the calculation of the protective indexes (PIs).

[2] = tested on: MES-induced seizures in mice; test: Maximal electroshock seizure (MES) test; format: in vivo; conditions: for responders at 100 mg/kg / ED50: Mus musculus, ip; for responders at 100 mg/kg / protection in MES screening: 100 mg/kg i.p., 0.5 h; for responders at 100 mg/kg: read-out: MES screening: number of mice protected/number of mice tested (converted); for protection in MES screening: four mice; for ED50: mice, pretreatment time 0.5 h, (95% confidence limits)
Procedure: as §1, §2, §3, §4, §5, §6

TRPV1 (VR1) (h) = target: T1, TRPV1 (VR1) (h) (Homo sapiens, UniProt Q8NER1); test: TRPV1 (VR1) (h) antagonist effect functional assay; format: cell-based; conditions: human recombinant CHO cells, read-out: % Inhibition of control agonist response, TRPV1 (antagonist effect)
T1 construct: host or cells: CHO
Procedure: Binding/functional studies were carried out commercially in Eurofins Laboratories (Poitiers, France) and Eurofins Panlabs Discovery Services Taiwan, Ltd. (New Taipei City, Taiwan) using testing procedures that were reported previously (for details see Table S2).
Table S2. Radioligand binding and functional assays. […]
Assays were performed commercially in Eurofins Laboratories (Poitiers, France) or Eurofins Panlabs Discovery Services Taiwan, Ltd. (New Taipei City, Taiwan).
Table S3. In vitro TRPV1 channel antagonist activity for compounds 45–66 (concentration of 100 µM). […]
Cmpd % Inhibition of control Cmpd % Inhibition of control agonist responsea agonist responsea
*Source: human recombinant CHO cells. a Results showing activity higher than 50% are considered to represent […]
variability of the sign al around the control level. Assays were performed commercially in Eurofins Laboratories

[3] = tested on: scPTZ-induced seizures in mice; test: Subcutaneous pentylenetetrazole (scPTZ) seizure test; format: in vivo; conditions: 100 mg/kg i.p., 0.5 h
Procedure: as §1, §2, §3, §4, §5

Na+ channel (site 2) = Na+ channel (site 2) radioligand binding; conditions: 100 µM; rat cerebral cortex
[4] = tested on: MES-induced seizures in mice; conditions: i.p., pretreatment 1.0 h; cited from earlier work
[5] = target: T2, Calcium Cav1.2 channels (dihydropyridine site) (Homo sapiens, UniProt Q13936); test: Calcium Cav1.2 channel binding (dihydropyridine site, antagonist radioligand); conditions: 100 µM; human recombinant HEK-293 cell; read-out: % Inhibition of Control Specific Binding, Cav1.2 (dihydropyridine site)
T2 construct: host or cells: HEK-293

[6] = read-out: 6 Hz (32 mA) screening: number of mice protected/number of mice tested (converted)
[7] = four mice, read-out: protection in 6 Hz (32 mA) screening

T1 sequence (Q8NER1 whole entry): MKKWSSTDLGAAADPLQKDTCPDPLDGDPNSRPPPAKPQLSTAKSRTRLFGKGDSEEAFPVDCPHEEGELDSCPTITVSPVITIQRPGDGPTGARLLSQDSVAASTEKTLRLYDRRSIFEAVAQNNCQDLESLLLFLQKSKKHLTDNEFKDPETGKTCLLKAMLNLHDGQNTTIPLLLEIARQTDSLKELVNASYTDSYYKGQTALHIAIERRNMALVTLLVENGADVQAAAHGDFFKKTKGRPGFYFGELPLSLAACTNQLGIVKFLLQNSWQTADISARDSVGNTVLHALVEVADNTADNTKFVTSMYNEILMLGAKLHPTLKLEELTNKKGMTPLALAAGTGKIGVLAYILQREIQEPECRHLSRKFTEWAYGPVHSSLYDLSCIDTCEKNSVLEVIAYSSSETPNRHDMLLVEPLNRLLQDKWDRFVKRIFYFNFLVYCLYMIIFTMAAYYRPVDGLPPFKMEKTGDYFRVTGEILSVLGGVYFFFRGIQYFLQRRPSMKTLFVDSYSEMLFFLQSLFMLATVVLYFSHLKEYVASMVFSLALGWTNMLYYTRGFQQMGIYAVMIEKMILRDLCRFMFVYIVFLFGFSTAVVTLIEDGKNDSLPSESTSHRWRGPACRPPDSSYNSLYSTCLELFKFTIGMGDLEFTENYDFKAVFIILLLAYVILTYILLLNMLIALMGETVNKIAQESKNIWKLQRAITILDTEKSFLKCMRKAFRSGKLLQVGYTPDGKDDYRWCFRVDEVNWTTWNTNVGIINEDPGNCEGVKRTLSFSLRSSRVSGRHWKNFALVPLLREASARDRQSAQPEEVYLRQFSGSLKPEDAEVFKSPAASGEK
T2 sequence (Q13936 whole entry): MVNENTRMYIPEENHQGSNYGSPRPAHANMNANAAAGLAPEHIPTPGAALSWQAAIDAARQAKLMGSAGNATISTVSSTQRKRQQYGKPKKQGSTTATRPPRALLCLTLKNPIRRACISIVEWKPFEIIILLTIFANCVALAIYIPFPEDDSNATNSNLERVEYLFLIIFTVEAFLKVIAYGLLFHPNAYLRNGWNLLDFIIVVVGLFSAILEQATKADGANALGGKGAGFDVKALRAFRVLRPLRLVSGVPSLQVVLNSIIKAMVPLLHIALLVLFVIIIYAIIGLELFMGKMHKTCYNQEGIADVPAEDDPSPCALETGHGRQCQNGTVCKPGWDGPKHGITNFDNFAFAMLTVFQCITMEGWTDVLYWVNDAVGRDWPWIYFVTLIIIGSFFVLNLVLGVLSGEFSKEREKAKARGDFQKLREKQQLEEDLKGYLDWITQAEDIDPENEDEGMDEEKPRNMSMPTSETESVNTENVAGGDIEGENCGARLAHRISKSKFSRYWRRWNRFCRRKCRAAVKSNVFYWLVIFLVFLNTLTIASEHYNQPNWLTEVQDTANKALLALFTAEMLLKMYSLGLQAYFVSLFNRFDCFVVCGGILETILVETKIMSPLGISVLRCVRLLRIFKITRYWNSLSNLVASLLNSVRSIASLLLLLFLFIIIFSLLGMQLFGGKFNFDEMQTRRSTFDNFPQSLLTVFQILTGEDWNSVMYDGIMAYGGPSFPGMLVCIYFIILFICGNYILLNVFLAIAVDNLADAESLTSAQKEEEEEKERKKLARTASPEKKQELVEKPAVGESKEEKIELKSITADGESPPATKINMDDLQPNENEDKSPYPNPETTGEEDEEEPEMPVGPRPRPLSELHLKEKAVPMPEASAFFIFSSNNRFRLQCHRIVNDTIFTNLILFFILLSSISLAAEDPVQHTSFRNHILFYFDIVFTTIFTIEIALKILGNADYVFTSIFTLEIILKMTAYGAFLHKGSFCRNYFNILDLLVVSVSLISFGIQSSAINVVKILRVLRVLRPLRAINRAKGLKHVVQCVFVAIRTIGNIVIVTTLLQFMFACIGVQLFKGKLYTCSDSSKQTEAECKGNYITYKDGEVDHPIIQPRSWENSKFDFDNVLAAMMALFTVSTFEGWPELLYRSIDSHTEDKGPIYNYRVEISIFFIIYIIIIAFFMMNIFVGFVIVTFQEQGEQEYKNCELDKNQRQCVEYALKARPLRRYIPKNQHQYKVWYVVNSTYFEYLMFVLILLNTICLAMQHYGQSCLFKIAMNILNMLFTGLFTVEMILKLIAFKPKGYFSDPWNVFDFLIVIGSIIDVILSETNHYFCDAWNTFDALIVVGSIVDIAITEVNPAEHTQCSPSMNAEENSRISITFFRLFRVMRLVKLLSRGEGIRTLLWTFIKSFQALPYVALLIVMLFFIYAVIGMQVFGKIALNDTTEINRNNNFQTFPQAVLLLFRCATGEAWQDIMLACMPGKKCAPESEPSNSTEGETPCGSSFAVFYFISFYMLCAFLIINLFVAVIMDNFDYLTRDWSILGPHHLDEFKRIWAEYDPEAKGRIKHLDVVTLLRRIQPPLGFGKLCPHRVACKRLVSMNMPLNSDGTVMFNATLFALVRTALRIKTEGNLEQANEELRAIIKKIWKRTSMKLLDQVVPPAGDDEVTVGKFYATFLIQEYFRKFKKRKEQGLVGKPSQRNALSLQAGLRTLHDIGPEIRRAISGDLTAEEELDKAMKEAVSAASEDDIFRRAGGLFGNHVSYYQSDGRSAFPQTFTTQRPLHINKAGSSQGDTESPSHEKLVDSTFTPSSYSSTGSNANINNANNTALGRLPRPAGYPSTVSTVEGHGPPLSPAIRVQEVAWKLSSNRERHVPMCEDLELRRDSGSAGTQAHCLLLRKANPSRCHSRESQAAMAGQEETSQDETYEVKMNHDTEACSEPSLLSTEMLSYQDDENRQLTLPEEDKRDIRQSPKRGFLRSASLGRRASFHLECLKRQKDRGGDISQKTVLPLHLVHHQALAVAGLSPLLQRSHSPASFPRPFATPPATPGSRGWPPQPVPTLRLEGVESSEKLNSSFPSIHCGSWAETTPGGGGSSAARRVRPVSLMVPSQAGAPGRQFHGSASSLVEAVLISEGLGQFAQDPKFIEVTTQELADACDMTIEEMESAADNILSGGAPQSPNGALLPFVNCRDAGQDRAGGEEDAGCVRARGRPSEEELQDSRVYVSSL
T2 sequence (Q08289 whole entry partner): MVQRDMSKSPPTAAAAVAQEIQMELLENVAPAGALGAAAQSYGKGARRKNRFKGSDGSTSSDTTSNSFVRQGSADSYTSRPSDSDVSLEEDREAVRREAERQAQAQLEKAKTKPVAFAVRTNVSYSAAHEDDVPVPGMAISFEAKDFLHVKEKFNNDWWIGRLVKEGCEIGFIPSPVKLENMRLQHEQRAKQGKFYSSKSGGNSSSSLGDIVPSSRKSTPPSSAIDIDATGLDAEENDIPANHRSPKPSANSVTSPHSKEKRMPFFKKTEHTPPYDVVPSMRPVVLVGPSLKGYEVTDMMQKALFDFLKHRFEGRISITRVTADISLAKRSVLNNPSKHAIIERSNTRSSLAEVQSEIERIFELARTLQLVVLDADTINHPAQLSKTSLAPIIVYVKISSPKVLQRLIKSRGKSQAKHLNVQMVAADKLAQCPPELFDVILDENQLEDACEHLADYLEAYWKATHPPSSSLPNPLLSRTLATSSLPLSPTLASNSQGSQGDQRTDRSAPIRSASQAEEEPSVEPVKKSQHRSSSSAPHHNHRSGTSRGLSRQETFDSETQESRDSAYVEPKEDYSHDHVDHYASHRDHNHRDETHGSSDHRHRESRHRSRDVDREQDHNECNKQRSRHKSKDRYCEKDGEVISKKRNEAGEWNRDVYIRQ
T2 sequence (P54289 25-956 partner limits assumed): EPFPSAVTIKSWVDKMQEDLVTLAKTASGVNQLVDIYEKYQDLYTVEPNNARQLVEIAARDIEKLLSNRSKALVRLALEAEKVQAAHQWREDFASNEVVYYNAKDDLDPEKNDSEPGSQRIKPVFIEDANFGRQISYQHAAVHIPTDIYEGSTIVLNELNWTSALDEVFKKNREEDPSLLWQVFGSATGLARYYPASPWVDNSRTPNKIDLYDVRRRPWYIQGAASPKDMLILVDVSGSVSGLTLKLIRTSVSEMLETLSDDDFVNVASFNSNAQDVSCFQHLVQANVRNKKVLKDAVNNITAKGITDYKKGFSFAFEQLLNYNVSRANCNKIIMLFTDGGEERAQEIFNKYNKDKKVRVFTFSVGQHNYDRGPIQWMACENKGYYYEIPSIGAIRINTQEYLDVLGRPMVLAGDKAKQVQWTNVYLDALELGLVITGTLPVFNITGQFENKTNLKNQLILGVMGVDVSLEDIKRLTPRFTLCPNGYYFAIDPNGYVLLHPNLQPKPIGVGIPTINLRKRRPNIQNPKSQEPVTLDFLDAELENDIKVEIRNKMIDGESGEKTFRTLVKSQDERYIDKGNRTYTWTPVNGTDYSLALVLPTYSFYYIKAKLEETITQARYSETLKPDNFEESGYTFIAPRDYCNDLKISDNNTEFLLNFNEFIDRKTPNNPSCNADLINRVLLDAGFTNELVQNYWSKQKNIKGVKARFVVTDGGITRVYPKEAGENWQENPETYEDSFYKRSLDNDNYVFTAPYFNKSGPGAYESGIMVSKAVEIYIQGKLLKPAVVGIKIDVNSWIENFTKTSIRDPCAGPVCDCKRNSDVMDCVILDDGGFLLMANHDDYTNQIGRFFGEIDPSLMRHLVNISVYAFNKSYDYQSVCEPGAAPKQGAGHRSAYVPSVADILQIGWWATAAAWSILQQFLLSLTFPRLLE
T2 sequence (P54289 957-1103 partner limits assumed): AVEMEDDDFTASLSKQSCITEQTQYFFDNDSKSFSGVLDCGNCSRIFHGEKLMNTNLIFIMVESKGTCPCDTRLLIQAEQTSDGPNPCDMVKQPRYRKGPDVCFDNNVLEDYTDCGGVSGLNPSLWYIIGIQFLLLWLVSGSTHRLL

SMILES | responders at 100 mg/kg [1, 6] | melting point | responders at 100 mg/kg [2] | inhibition at 100 µM (TRPV1 (VR1) (h)) | responders at 100 mg/kg [1, 7] | other results
CC(=O)NC(C(=O)N1CCN(c2cc(Cl)cc(Cl)c2)CC1)c1ccccc1 (centres unmarked) [Compound 50, N-(2-(4-(3,5-dichlorophenyl)piperazin-1-yl)-2-oxo-1-phenylethyl)acetamide] | 25% | 185.9 to 187.3 °C | 0% | 128% | – | –
CC(=O)NC(C(=O)N1CCN(c2cccc(C(F)(F)F)n2)CC1)c1ccccc1 (centres unmarked) [Compound 66, N-(2-oxo-1-phenyl-2-(4-(6-(trifluoromethyl)pyridine-2-yl)piperazin-1-yl)ethyl)acetamide] | 50% | 151.6 to 152.3 °C | 0% | 3.7% | 50% | –
CC(=O)NC(C(=O)N1CCN(c2ccc(Cl)cc2)CC1)c1ccccc1 (centres unmarked) [Compound 48, N-(2-(4-(4-chlorophenyl)piperazin-1-yl)-2-oxo-1-phenylethyl)acetamide] | 75% | 133.3 to 134.6 °C | 25% | 127% | 75% | ED50 [1]: 60.1 mg/kg; protection in MES screening [2]: 25%; ED50 [2]: > 150 mg/kg
CC(=O)NC(C(=O)N1CCN(c2ccc(C(F)(F)F)cc2)CC1)c1ccccc1 (centres unmarked) [Compound 54, N-(2-oxo-1-phenyl-2-(4-(4-(trifluoromethyl)phenyl)piperazin-1-yl)ethyl)acetamide] | 50% | – | 0% | 128% | 50% | –
COc1cccc(N2CCN(C(=O)C(NC(C)=O)c3ccccc3)CC2)c1 (centres unmarked) [Compound 59, N-(2-(4-(3-methoxyphenyl)piperazin-1-yl)-2-oxo-1-phenylethyl)acetamide] | – | – | 0% | 20.1% | – | –
CC(=O)NC(C(=O)N1CCN(c2cccc(C)c2)CC1)c1ccccc1 (centres unmarked) [Compound 56, N-(2-oxo-1-phenyl-2-(4-(m-tolyl)piperazin-1-yl)ethyl)acetamide] | 25% | – | 0% | 57.4% | – | –
CC(=O)NC(C(=O)N1CCN(c2ccc(C(F)(F)F)cn2)CC1)c1ccccc1 (centres unmarked) [Compound 65, N-(2-oxo-1-phenyl-2-(4-(5-(trifluoromethyl)pyridine-2-yl)piperazin-1-yl)ethyl)acetamide] | 75% | 91.2 to 92.4 °C | 75% | 8.5% | 75% | ED50 [1]: 64.9 mg/kg; protection in MES screening [2]: 75%; ED50 [2]: > 100 mg/kg; scPTZ screening: number of mice protected/number of mice tested [3]: 0/4
CC(=O)NC(C(=O)N1CCN(c2ncccc2C(F)(F)F)CC1)c1ccccc1 (centres unmarked) [Compound 63, N-(2-oxo-1-phenyl-2-(4-(3-(trifluoromethyl)pyridine-2-yl)piperazin-1-yl)ethyl)acetamide] | – | 147.8 to 148.9 °C | 0% | -2.8% | – | –
CC(=O)NC(C(=O)N1CCN(c2cc(C(F)(F)F)cc(C(F)(F)F)c2)CC1)c1ccccc1 (centres unmarked) [Compound 55, N-(2-(4-(3,5-bis(trifluoromethyl)phenyl)piperazin-1-yl)-2-oxo-1-phenylethyl)acetamide] | 25% | 194.2 to 195.4 °C | 0% | -14% | – | –
CC(=O)NC(C(=O)N1CCN(c2cccc(C(F)F)c2)CC1)c1ccccc1 (centres unmarked) [Compound 57, N-(2-(4-(3-(difluoromethyl)phenyl)piperazin-1-yl)-2-oxo-1-phenylethyl)acetamide] | 25% | – | 0% | 43.7% | – | –
CC(=O)NC(C(=O)N1CCN(c2ccc(Cl)c(Cl)c2)CC1)c1ccccc1 (centres unmarked) [Compound 49, N-(2-(4-(3,4-dichlorophenyl)piperazin-1-yl)-2-oxo-1-phenylethyl)acetamide] | 25% | – | 0% | 135% | – | –
CC(=O)NC(C(=O)N1CCN(c2ccccc2C(F)(F)F)CC1)c1ccccc1 (centres unmarked) [Compound 52, N-(2-oxo-1-phenyl-2-(4-(2-(trifluoromethyl)phenyl)piperazin-1-yl)ethyl)acetamide] | 50% | – | 0% | 90.9% | 50% | –
CC(=O)NC(C(=O)N1CCN(c2cc(C(F)(F)F)ccn2)CC1)c1ccccc1 (centres unmarked) [Compound 64, N-(2-oxo-1-phenyl-2-(4-(4-(trifluoromethyl)pyridine-2-yl)piperazin-1-yl)ethyl)acetamide] | 25% | 91.4 to 92.3 °C | 0% | 39.7% | – | –
CC(=O)NC(C(=O)N1CCN(c2cccc(Oc3ccccc3)c2)CC1)c1ccccc1 (centres unmarked) [Compound 61, N-(2-oxo-2-(4-(3-phenoxyphenyl)piperazin-1-yl)-1-phenylethyl)acetamide] | 25% | – | 0% | 52.5% | – | –
CC(=O)NC(C(=O)N1CCN(c2ccccc2Cl)CC1)c1ccccc1 (centres unmarked) [Compound 46, N-(2-(4-(2-chlorophenyl)piperazin-1-yl)-2-oxo-1-phenylethyl)acetamide] | 50% | – | 0% | 116% | 50% | –
CC(=O)NC(C(=O)N1CCN(c2cccc(-c3ccccc3)c2)CC1)c1ccccc1 (centres unmarked) [Compound 58, N-(2-(4-([1,1’-biphenyl]-3-yl)piperazin-1-yl)-2-oxo-1-phenylethyl)acetamide] | 50% | – | 0% | 92% | 50% | –
C=C(C)[C@@H]1CCC(C)=C[C@H]1c1c(O)cc(CCCCC)cc1O [CBD, cannabidiol, reference compound] | – | – | – | 48% | – | % Inhibition of Control Specific Binding, Na+ channel (site 2) (Na+ channel (site 2)): 94.8 (100) %; ED50 MES [4]: 80.0 (65.5−96.0) mg/kg; inhibition at 100 µM [5]: 58%
CC(=O)NC(C(=O)N1CCN(c2cc(Cl)cc(C(F)(F)F)c2)CC1)c1ccccc1 (centres unmarked) [Compound 51, N-(2-(4-(3-chloro-5-(trifluoromethyl)phenyl)piperazin-1-yl)-2-oxo-1-phenylethyl) acetamide] | 25% | – | 0% | -2.5% | – | –
